Data taken from the NIST ThermoML archive (doi:10.1021/acs.jced.5b01000).
± gives the expanded uncertainty stated by the source.

Tests used:
[1] = 99 kPa, Liquid; for viscosity: Capillary tube (Ostwald / Ubbelohde) method; for speed of sound: Frequency=3 MHz, Sing-around technique in a fixed-path interferometer; for mass density: Vibrating tube method
[2] = refractive index (Na D-line) (dimensionless); details: 99 kPa, Liquid, Standard Abbe refractometry
[3] = refractive index (Na D-line) (dimensionless); xn = mol fraction of the nth substance listed; details: 99 kPa, Liquid, Standard Abbe refractometry, x2 = 0
[4] = xn = mol fraction of the nth substance listed; details: 99 kPa, Liquid, x2 = 0; for viscosity: Capillary tube (Ostwald / Ubbelohde) method; for speed of sound: Frequency=3 MHz, Sing-around technique in a fixed-path interferometer; for mass density: Vibrating tube method

SMILES | viscosity ([1]; 283.15 K) [mPa·s] | speed of sound ([1]; 283.15 K) [m/s] | mass density ([1]; 283.15 K) [kg/m3] | viscosity ([1]; 298.15 K) [mPa·s] | speed of sound ([1]; 298.15 K) [m/s] | mass density ([1]; 298.15 K) [kg/m3] | viscosity ([1]; 313.15 K) [mPa·s] | speed of sound ([1]; 313.15 K) [m/s] | mass density ([1]; 313.15 K) [kg/m3] | refractive index ([2]; 283.15 K) | refractive index ([2]; 298.15 K) | refractive index ([2]; 313.15 K) | refractive index ([3]; 283.15 K) | refractive index ([3]; 298.15 K) | refractive index ([3]; 313.15 K) | viscosity ([4]; 283.15 K) [mPa·s] | speed of sound ([4]; 283.15 K) [m/s] | mass density ([4]; 283.15 K) [kg/m3] | viscosity ([4]; 298.15 K) [mPa·s] | speed of sound ([4]; 298.15 K) [m/s] | further results
CCO [ethanol] | 1.444 ± 0.017 | 1194.5 ± 1.2 | 797.878 ± 0.19 | 1.079 ± 0.012 | 1143.2 ± 1.2 | 785.054 ± 0.19 | 0.8235 ± 0.0096 | 1092.4 ± 1.1 | 772.5 ± 0.19 | 1.36529 ± 0.00035 | 1.35913 ± 0.00035 | 1.35275 ± 0.00035 | – | – | – | – | – | – | – | – | –
CCO [ethanol] + CC(=O)N(C)C | – | – | – | – | – | – | – | – | – | – | – | – | 1.36529 ± 0.00035 | 1.35913 ± 0.00035 | 1.35275 ± 0.00035 | 1.444 ± 0.017 | 1194.5 ± 1.2 | 797.878 ± 0.19 | 1.079 ± 0.012 | 1143.2 ± 1.2 | mass density ([4]; 298.15 K): 785.054 ± 0.19 kg/m3; viscosity ([4]; 313.15 K): 0.8235 ± 0.0096 mPa·s; speed of sound ([4]; 313.15 K): 1092.4 ± 1.1 m/s; mass density ([4]; 313.15 K): 772.5 ± 0.19 kg/m3
CC(=O)N(C)C [N,N-dimethylethanamide] | 1.168 ± 0.014 | 1516.8 ± 1.3 | 950.131 ± 0.21 | 0.9299 ± 0.011 | 1453.7 ± 1.3 | 936.289 ± 0.21 | 0.7644 ± 0.0091 | 1393.3 ± 1.3 | 922.429 ± 0.21 | 1.44273 ± 0.00036 | 1.43579 ± 0.00036 | 1.42901 ± 0.00036 | – | – | – | – | – | – | – | – | –
CO [methanol] + CC(=O)N(C)C | – | – | – | – | – | – | – | – | – | – | – | – | 1.33282 ± 0.00035 | 1.32636 ± 0.00035 | 1.32013 ± 0.00035 | 0.677 ± 0.0079 | 1152.7 ± 1.2 | 800.707 ± 0.19 | 0.5449 ± 0.0064 | 1104.2 ± 1.1 | mass density ([4]; 298.15 K): 786.611 ± 0.19 kg/m3; viscosity ([4]; 313.15 K): 0.4441 ± 0.0053 mPa·s; speed of sound ([4]; 313.15 K): 1054.5 ± 1.1 m/s; mass density ([4]; 313.15 K): 772.31 ± 0.19 kg/m3
CO [methanol] | 0.677 ± 0.0079 | 1152.7 ± 1.2 | 800.707 ± 0.19 | 0.5449 ± 0.0064 | 1104.2 ± 1.1 | 786.611 ± 0.19 | 0.4441 ± 0.0053 | 1054.5 ± 1.1 | 772.31 ± 0.19 | 1.33282 ± 0.00035 | 1.32636 ± 0.00035 | 1.32013 ± 0.00035 | – | – | – | – | – | – | – | – | –
